Laboratory results: US11642359B2, “Nutritional composition for improving intestinal barrier integrity, preparation of the composition and method of treatment” (priority 2018, dated 2023)

Test system: alpha-1 antitrypsin (A1AT) in the gut wash
Assay: A1AT in the gut wash by ELISA as marker of intestinal permeability / barrier disruption in rotavirus-infected suckling rats
Type: in vivo, rat
Conditions: compared to both the RV and REF groups (p<0.05), 3rd day of the diarrheal period (peak of diarrhea)
Method: Newborn rats were distributed into five groups of 24 animals each: the reference (REF) group, rotavirus-infected (RV) group, and 3 rotavirus-infected groups supplemented with: a) a mixture of scGOS and lcFOS (RV+GOS/FOS group); b) 2′-FL (RV+2′-FL group); and c) both scGOS/lcFOS and 2′-FL (RV+GOS/FOS+2′-FL group).
Suckling rats were orally administered once daily with the same normalized volume/body weight of all products (4.5 μL/g/day), from the second to the sixteenth day of life, corresponding to the strict lactation period. The RV+GOS/FOS group was supplemented with 0.8 g of scGOS/lcFOS/100 g of body weight. The RV+2′-FL group was supplemented with 0.2 g of 2′-FL/100 g of body weight. The RV+GOS/FOS+2′-FL group received both products at the same doses as when given separately and maintaining the volume of administration (4.5 μL/g/day). The REF and RV groups were administered with a matched volume of water. […]
The quantification of A1AT in the gut wash, as a marker of intestinal permeability, was performed with the rat SERPINA1/Alpha 1 Antitrypsin ELISA kit (LifeSpan Biosciences Inc., Seattle, Wash., USA) following the manufacturer's instructions. […]

Substance: 2′-fucosyllactose [2′-FL]
- concentration of A1AT in the gut wash: reduced
- concentration of A1AT in the gut wash (listed as 2′-fucosyllactose): significant reduction
